These compounds were tested on A375 cells (assay: Assay 1: A375 cells treated with S1152, S1008 and compound, immunofluorescence (sc-365823) signal). Conditions: 1 μM S1152 + 0.5 μM S1008, one day.
Assay type: cell-based
Method: One thousand four hundred A375 cells were seeded in each well of a 384 well microplate. One day later they were treated with 1 μM S1152 (Selleckchem) in dimethyl sulfoxide, 0.5 μM S1008 (Selleckchem) and dose ranges of invention compounds for one day in Dulbecco's Modified Eagle's Medium supplemented with 10% fetal calf serum and 2 mM (2S)-2-amino-4-carbamoylbutanoic acid. Wells were incubated with 4% polyoxymethylene (Sigma Aldrich 158127) at ambient temperature. […] After one minute phosphate-buffered saline was replaced with 0.2% polyethylene glycol octylphenyl ether in phosphate-buffered saline. […] 1% aminoethanoic acid in phosphate-buffered saline was added for ten minutes at ambient temperature. […] After one hour at ambient temperature in the dark, signal in wells was measured with a Acumen Cellista. 3,8-Diamino-5-[3-(diethylmethylammonio)propyl]-6-phenylphenanthridinium diiodide-positive objects were defined in FL3 (565-600 nm) with a perimeter between 50-800 μm and a total intensity of 10000-1000000 FLU. Signal in FL2 (500-530 nm) was measured in defined objects. A normalized ratio of total In FL2 over total In FL3 staining was log transformed. A non-linear regression (variable slope, 4 parameters) was used to calculate EC50 values using GraphPad Prism (Version 7.0d).
In an alternative procedure, assay 1 has been affected by changing the counteratain. […] Cells were incubated with 0.5 μg/ml 2-(4-Amidinophenyl)-6-indolecarbamidine dihydrochloride, 4′,6-Diamidino-2-phenylindole dihydrochloride (Sigma D9542) in phosphate-buffered saline for at least 30 minutes at ambient temperature in the dark. A Celigo Imager (Nexcelom) was used to acquire images in the blue and green channel. The blue channel was used as a mask to define the area for the green signal. The average integrated intensity of the green signal was normalized and a non-linear regression (variable slope, 4 parameter) was used to calculate the EC50 values using GraphPad Prism (Version 8.4)

| EC50 | SMILES |
| --- | --- |
| 200 to 1000 nM | CC(=O)N1C[C@H](c2nc(Nc3ccnc(C)c3)cc(-c3cncc(N4CCCC4=O)c3)n2)CC[C@@H]1C [Compound 00108, 1-(5-(2-((3R,6S)-1-acetyl-6-methylpiperidin-3-yl)-6-((2-methylpyridin-4-yl)amino)pyrimidin-4-yl)pyridin-3-yl)pyrrolidin-2-one] |
| 200 to 1000 nM | CC(=O)N1C[C@H](c2nc(Nc3ccc4c(c3)NC(=O)C4)cc(-c3cccnc3)n2)CC[C@@H]1C [Compound 00076, 6-((2-((3R,6S)-1-acetyl-6-methylpiperidin-3-yl)-6-(pyridin-3-yl)pyrimidin-4-yl)amino)indolin-2-one] |
| > 10000 nM | COc1cc(-c2cc(Nc3ccnc(C)c3)nc([C@@H]3CC[C@H](C)N(C(C)=O)C3)n2)cnc1OC [Compound 00110, 1-((2S,5R)-5-(4-(5,6-dimethoxypyridin-3-yl)-6-((2-methylpyridin-4-yl)amino)pyrimidin-2-yl)-2-methylpiperidin-1-yl)ethan-1-one] |
| < 200 nM | CC(=O)N1C[C@H](c2nc(Nc3ccc4ncncc4c3)cc(-c3cccnc3)n2)CC[C@@H]1C [Compound 00121, 1-((2S,5R)-2-methyl-5-(4-(pyridin-3-yl)-6-(quinazolin-6-ylamino)pyrimidin-2-yl)piperidin-1-yl)ethan-1-one] |
| 200 to 1000 nM | CC(=O)N1C[C@H](c2nc(Nc3ccc4[nH]nnc4c3)cc(-c3cccnc3)n2)CC[C@@H]1C [Compound 00033, 1-((2S,5R)-5-(4-((1H-benzo[d][1,2,3]triazol-5-yl)amino)-6-(pyridin-3-yl)pyrimidin-2-yl)-2-methylpiperidin-1-yl)ethan-1-one] |
| 200 to 1000 nM | CC(=O)N1C[C@H](c2nc(Nc3ccc4cn[nH]c4c3)cc(-c3cccnc3)n2)CC[C@@H]1C [Compound 00029, 1-((2S,5R)-5-(4-((1H-indazol-6-yl)amino)-6-(pyridin-3-yl)pyrimidin-2-yl)-2-methylpiperidin-1-yl)ethan-1-one] |
| < 200 nM | CC(=O)N1C[C@H](c2nc(Nc3cncc(C)c3)cc(-c3cncc(C)c3)n2)CC[C@@H]1C (racemic) [Compound 00098, (+/−)-c/s-1-(2-methyl-5-(4-(5-methylpyridin-3-yl)-6-((5-methylpyridin-3-yl)amino)pyrimidin-2-yl)piperidin-1-yl)ethan-1-one] |
| < 200 nM | CC(=O)N1C[C@H](c2nc(Nc3cccc(O)c3)cc(-c3cccnc3)n2)CC[C@@H]1C [Compound 00075, 1-((2S,5R)-5-(4-((3-hydroxyphenyl)amino)-6-(pyridin-3-yl)pyrimidin-2-yl)-2-methylpiperidin-1-yl)ethan-1-one] |
| 1000 to 10000 nM | CC(=O)N1C[C@H](c2nc(Nc3cncc(N4CCCC4=O)c3)cc(-c3cccnc3)n2)CC[C@@H]1C [Compound 00135, 1-(5-((2-((3R,6S)-1-acetyl-6-methylpiperidin-3-yl)-6-(pyridin-3-yl)pyrimidin-4-yl)amino)pyridin-3-yl)pyrrolidin-2-one] |
| 200 to 1000 nM | CC(=O)N1C[C@H](c2nc(Nc3cccnc3)cc(-c3cccnc3)n2)CC[C@@H]1C (racemic) [Compound 00102, (+/−)-cis-1-(2-methyl-5-(4-(pyridin-3-yl)-6-(pyridin-3-ylamino)pyrimidin-2-yl)piperidin-1-yl)ethan-1-one] |
| 200 to 1000 nM | CC(=O)N1C[C@H](c2nc(Nc3cncc(C)c3)cc(-c3cncc4[nH]ccc34)n2)CC[C@@H]1C (racemic) [Compound 00099, (+/−)-cis-1-(2-methyl-5-(4-((5-methylpyridin-3-yl)amino)-6-(1H-pyrrolo[2,3-c]pyridin-4-yl)pyrimidin-2-yl)piperidin-1-yl)ethan-1-one] |
| 1000 to 10000 nM | CC(=O)Nc1ccc(Nc2cc(-c3cccnc3)nc([C@@H]3CC[C@H](C)N(C(C)=O)C3)n2)cc1O [Compound 00036, N-(4-((2-((3R,6S)-1-acetyl-6-methylpiperidin-3-yl)-6-(pyridin-3-yl)pyrimidin-4-yl)amino)-2-hydroxyphenyl)acetamide] |
| < 200 nM | [2H]C([2H])([2H])[C@H]1CC[C@@H](c2nc(Nc3cccc(F)c3)cc(-c3cccnc3)n2)CN1C(C)=O [Compound 00010] |
| < 200 nM | CC(=O)N1C[C@H](c2nc(Nc3ccnc(F)c3)cc(-c3cncc(N4CCCC4=O)c3)n2)CC[C@@H]1C [Compound 00106, 1-(5-(2-((3R,6S)-1-acetyl-6-methylpiperidin-3-yl)-6-((2-fluoropyridin-4-yl)amino)pyrimidin-4-yl)pyridin-3-yl)pyrrolidin-2-one] |
| 200 to 1000 nM | CC(=O)N1C[C@H](c2nc(Nc3ccc4nncnc4c3)cc(-c3cccnc3)n2)CC[C@@H]1C [Compound 00122, 1-((2S,5R)-5-(4-(benzo[e][1,2,4]triazin-6-ylamino)-6-(pyridin-3-yl)pyrimidin-2-yl)-2-methylpiperidin-1-yl)ethan-1-one] |
| > 10000 nM | CC(=O)N1C[C@H](c2nc(Nc3ccnc(C)c3)cc(-c3cncc(N4CC(C(N)=O)C4)c3)n2)CC[C@@H]1C [Compound 00114, 1-(5-(2-((3R,6S)-1-acetyl-6-methylpiperidin-3-yl)-6-((2-methylpyridin-4-yl)amino)pyrimidin-4-yl)pyridin-3-yl)azetidine-3-carboxamide] |
| < 200 nM | CC(=O)N1C[C@H](c2nc(Nc3ccnc(C)c3)cc(-c3cncc(C4COC4)c3)n2)CC[C@@H]1C [Compound 00127, 1-((2S,5R)-2-methyl-5-(4-((2-methylpyridin-4-yl)amino)-6-(5-(oxetan-3-yl)pyridin-3-yl)pyrimidin-2-yl)piperidin-1-yl)ethan-1-one] |
| > 10000 nM | CC(=O)N1C[C@@H](c2nc(Nc3ccncc3)cc(-c3cccnc3)n2)CC[C@H]1C [Compound 00007] |
| 200 to 1000 nM | CC(=O)N1C[C@H](c2nc(Nc3ccc4nc[nH]c4c3)cc(-c3cccnc3)n2)CC[C@@H]1C [Compound 00032, 1-((2S,5R)-5-(4-((1H-benzo[d]imidazol-6-yl)amino)-6-(pyridin-3-yl)pyrimidin-2-yl)-2-methylpiperidin-1-yl)ethan-1-one] |

Same assay, conditions: Homo sapiens, A-375, 24 h, 1 μM S1152 + 0.5 μM S1008, one day

| EC50 | SMILES |
| --- | --- |
| > 10000 nM | CC(=O)N1C[C@H](c2nc(Nc3cccc(F)c3)cc(-c3cccnc3)n2)CC[C@H]1C [Compound 00015, (+/+)-trans-1-(5-(4-((3-fluorophenyl)amino)-6-(pyridin-3-yl)pyrimidin-2-yl)-2-methylpiperidin-1-yl)ethan-1-one] |
| 1000 to 10000 nM | CC(=O)N1C[C@H](c2nc(Nc3cccc(C)c3)cc(-c3cccnc3)n2)CC[C@@H]1C(F)F (racemic) [Compound 00027, (+/−)-cis-1-(2-(difluoromethyl)-5-(4-(pyridin-3-yl)-6-(m-tolylamino)pyrimidin-2-yl)piperidin-1-yl)ethan-1-one] |
| > 10000 nM | CC(=O)N1C[C@H](c2nc(Nc3cccc(F)c3)cc(-c3cccnc3)n2)CC[C@H]1C(F)(F)F (racemic) [Compound 00024, (+/−)-trans-1-(5-(4-((3-fluorophenyl)amino)-6-(pyridin-3-yl)pyrimidin-2-yl)-2-(trifluoromethyl)piperidin-1-yl)ethan-1-one] |
| > 10000 nM | CC[C@@H]1CC[C@@H](c2nc(Nc3cccc(F)c3)cc(-c3cccnc3)n2)CN1C(C)=O (racemic) [Compound 00021, (+/−)-trans-1-(2-ethyl-5-(4-((3-fluorophenyl)amino)-6-(pyridin-3-yl)pyrimidin-2-yl)piperidin-1-yl)ethan-1-one] |

Source: patent US12478624B2, “Heterocyclic derivatives, pharmaceutical compositions and their use in the treatment or amelioration of cancer” (Tolremo Therapeutics AG, priority 2019, dated 2025)
